Data published in PubChem BioAssay (NCI).
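Each compound was tested at five concentrations against cells in 96-well plates for 48 hours. TGI denotes the concentration required for complete inhibition of growth.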

Tests used:
Assay in all cases: NCI tumour cell line growth inhibition, 48 h
[1] = system: 786-0 renal
[2] = system: A549 NSCLC
[3] = system: ACHN renal
[4] = system: CAKI-1 renal
[5] = system: CCRF-CEM leukemia
[6] = system: COLO 205 colon
[7] = system: DU-145 prostate
[8] = system: EKVX NSCLC
[9] = system: HCC-2998 colon
[10] = system: HCT-116 colon
[11] = system: HCT-15 colon
[12] = system: HL-60(TB) leukemia
[13] = system: HOP-62 NSCLC
[14] = system: HOP-92 NSCLC
[15] = system: HS 578T breast
[16] = system: HT29 colon
[17] = system: IGROV1 ovarian
[18] = system: K-562 leukemia
[19] = system: KM12 colon
[20] = system: LOX IMVI melanoma
[21] = system: M14 melanoma
[22] = system: MCF7 breast
[23] = system: MDA-MB-231 breast
[24] = system: MDA-MB-435
[25] = system: MDA-N
[26] = system: MOLT-4 leukemia
[27] = system: NCI-H226 lung
[28] = system: NCI-H23 lung
[29] = system: NCI-H460 lung
[30] = system: NCI-H522 lung
[31] = system: NCI/ADR-RES ovarian
[32] = system: OVCAR-3 ovarian
[33] = system: OVCAR-4 ovarian
[34] = system: OVCAR-5 ovarian
[35] = system: OVCAR-8 ovarian
[36] = system: PC-3 prostate
[37] = system: RPMI-8226 leukemia
[38] = system: RXF 393 renal
[39] = system: SF-268 CNS
[40] = system: SF-295 CNS
[41] = system: SF-539 CNS
[42] = system: SK-MEL-2 melanoma
[43] = system: SK-MEL-28 melanoma
[44] = system: SK-MEL-5 melanoma
[45] = system: SK-OV-3 ovarian
[46] = system: SN12C renal
[47] = system: SNB-19 CNS
[48] = system: SNB-75 CNS
[49] = system: SR leukemia
[50] = system: SW-620 colon
[51] = system: T-47D breast
[52] = system: TK-10 renal
[53] = system: U251 CNS
[54] = system: UACC-257 melanoma
[55] = system: UACC-62 melanoma
[56] = system: UO-31 renal
[57] = system: A498 renal
[58] = system: BT-549 breast
[59] = system: MALME-3M melanoma

`CCCCCCCCCCCCCC[S+](C)C` was tested, and the TGI [1] was 2.61 µM, the TGI [2] was 4.14 µM and the TGI [3] was > 10 µM. For the same compound, the TGI [4] was > 10 µM, the TGI [5] was 3.25 µM and the TGI [6] was 2.97 µM. For the same compound, the TGI [7] was > 10 µM, the TGI [8] was 9.87 µM and the TGI [9] was 3.49 µM. The TGI [10] was > 10 µM, the TGI [11] was > 10 µM and the TGI [12] was 2.47 µM. For the same compound, the TGI [13] was 3.87 µM, the TGI [14] was 3.67 µM and the TGI [15] was 3.78 µM. The TGI [16] was 4.93 µM, the TGI [17] was 2.33 µM and the TGI [18] was 4.68 µM. The TGI [19] was 2.95 µM, the TGI [20] was 4.34 µM and the TGI [21] was 3.57 µM. The TGI [22] was 4.67 µM, the TGI [23] was 4.64 µM and the TGI [24] was 4.35 µM. For the same compound, the TGI [25] was 4.15 µM, the TGI [26] was 2.85 µM and the TGI [27] was 5.13 µM. The TGI [28] was 4.09 µM, the TGI [29] was 6.78 µM and the TGI [30] was 4.33 µM. The TGI [31] was > 10 µM, the TGI [32] was 4.03 µM and the TGI [33] was 7.31 µM. For the same compound, the TGI [34] was > 10 µM, the TGI [35] was 3.58 µM and the TGI [36] was 2.98 µM. For the same compound, the TGI [37] was 2.65 µM, the TGI [38] was 2.72 µM and the TGI [39] was 3.99 µM. The TGI [40] was > 10 µM, the TGI [41] was 2.79 µM and the TGI [42] was 5.13 µM. The TGI [43] was 8.5 µM, the TGI [44] was 2.97 µM and the TGI [45] was > 10 µM. It also gave a TGI [46] of 3.24 µM, a TGI [47] of 2.84 µM and a TGI [48] of 3.51 µM. The TGI [49] was 2.35 µM, the TGI [50] was > 10 µM and the TGI [51] was > 10 µM. The TGI [52] was 3.75 µM, the TGI [53] was 2.28 µM and the TGI [54] was 6.99 µM. The TGI [55] was 6.78 µM and the TGI [56] was > 10 µM.

`CCOC(=O)C1OC(C2(C)OC3(OC4(C=CC3O)OC(C(C)C(=O)C(C)C(O)C(C)CC(C)c3c(Cl)cc(C)c(O)c3C(=O)O)C(C)CC4C)C(C)C2OC)CC1O` (stereo unspecified) gave a TGI [1] of 4.47 µM, a TGI [57] of 2.51 µM and a TGI [2] of 7.27 µM. For the same compound, the TGI [3] was 6.78 µM, the TGI [58] was 17.2 µM and the TGI [4] was 10.4 µM. The TGI [5] was 1.04 µM, the TGI [6] was 2.08 µM and the TGI [7] was 5.93 µM. It also gave a TGI [8] of 5.02 µM, a TGI [9] of 0.264 µM and a TGI [10] of 3.75 µM. For the same compound, the TGI [11] was > 20.2 µM, the TGI [12] was 4.66 µM and the TGI [13] was 0.483 µM. It also gave a TGI [14] of 5.77 µM, a TGI [15] of 11.7 µM and a TGI [16] of 3.57 µM. For the same compound, the TGI [17] was 16.5 µM, the TGI [18] was 5.16 µM and the TGI [19] was 6.41 µM. The TGI [20] was 14.2 µM, the TGI [21] was 6.38 µM and the TGI [59] was 1.81 µM. For the same compound, the TGI [22] was 23.1 µM, the TGI [23] was 2.96 µM and the TGI [24] was 1.22 µM. It also gave a TGI [25] of 4.76 µM, a TGI [27] of 1.84 µM and a TGI [28] of 5.77 µM. The TGI [29] was 0.714 µM, the TGI [30] was 0.434 µM and the TGI [31] was 20.4 µM. For the same compound, the TGI [32] was 3.9 µM, the TGI [33] was 4.53 µM and the TGI [34] was 21 µM. For the same compound, the TGI [35] was 13.3 µM, the TGI [36] was 17.3 µM and the TGI [37] was > 14.7 µM. The TGI [39] was 6.85 µM, the TGI [40] was 3.89 µM and the TGI [41] was 7.51 µM. The TGI [42] was 1.13 µM, the TGI [43] was 1.02 µM and the TGI [44] was 5.59 µM. The TGI [45] was 3.26 µM, the TGI [46] was 4.84 µM and the TGI [48] was 0.919 µM. The TGI [49] was 4.53 µM, the TGI [50] was 10.5 µM and the TGI [52] was 7.81 µM. The TGI [53] was 4.24 µM, the TGI [54] was 8.54 µM and the TGI [55] was 1.25 µM. For the same compound, the TGI [56] was 3.95 µM.
